According to patent publication US9725442B2, “Heterocyclic derivative having PGD2 receptor antagonist activity” (Shionogi & Co., Ltd., priority 2011, dated 2017):
Like-named read-outs stand apart in the source and are kept apart here.

What was measured:
CRTH2 = CRTH2 (Homo sapiens (Human), UniProt Q9Y5Y4); test: CRTH2 receptor binding inhibitory activity ([3H]-PGD2 displacement, membranes of CRTH2-expressing K562 cell); settings: [3H]-PGD2 displacement, membrane of CRTH2-expressing K562 cell, read-out: Ki
Sequence of CRTH2 (Q9Y5Y4 whole entry): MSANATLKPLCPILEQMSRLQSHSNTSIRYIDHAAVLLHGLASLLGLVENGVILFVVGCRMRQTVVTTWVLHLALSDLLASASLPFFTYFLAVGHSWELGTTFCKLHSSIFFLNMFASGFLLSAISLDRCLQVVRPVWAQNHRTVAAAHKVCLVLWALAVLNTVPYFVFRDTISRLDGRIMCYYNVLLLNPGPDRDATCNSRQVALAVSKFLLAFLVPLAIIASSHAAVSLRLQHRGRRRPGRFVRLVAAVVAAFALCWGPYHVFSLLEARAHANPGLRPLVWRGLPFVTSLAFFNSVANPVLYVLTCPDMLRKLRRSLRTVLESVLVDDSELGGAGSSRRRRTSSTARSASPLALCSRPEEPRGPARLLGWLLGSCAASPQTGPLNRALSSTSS
Outline: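 CRTH2-expressing K562 membranes (20 μg/well) in 50 mM Tris/HCl pH 7.4 with 10 mM MgCl2 were incubated with [3H]-PGD2 for 60 min at room temperature, then filtered.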

Human DP1 receptor = Human DP1 receptor (Homo sapiens (Human), UniProt Q13258); test: Human DP1 inhibitory activity in DP1-expressing cell (PGD2-induced cAMP); type: cell-based
Sequence of Human DP1 receptor (Q13258 whole entry): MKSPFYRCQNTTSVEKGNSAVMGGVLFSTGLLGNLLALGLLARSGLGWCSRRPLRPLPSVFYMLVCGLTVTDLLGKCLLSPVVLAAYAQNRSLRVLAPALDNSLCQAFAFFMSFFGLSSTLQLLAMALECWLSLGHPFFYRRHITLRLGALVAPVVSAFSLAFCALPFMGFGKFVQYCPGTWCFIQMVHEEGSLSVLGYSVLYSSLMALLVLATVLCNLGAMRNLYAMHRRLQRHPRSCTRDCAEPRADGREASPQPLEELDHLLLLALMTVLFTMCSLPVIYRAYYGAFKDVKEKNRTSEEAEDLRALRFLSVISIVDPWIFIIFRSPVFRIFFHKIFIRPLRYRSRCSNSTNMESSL
Protocol: Compounds were categorized as AA (cAMP is less than 100 nM) and A (cAMP is more than 100 nM and less than 5000 nM) as shown in Table 99 and 100.

[1] = CRTH2 receptor binding, categorized AAAA/AAA
[2] = category of cAMP IC50, human DP1 receptor expressing Jurkut cell

Ki (CRTH2; [1])	IC50 (Human DP1 receptor; [2])	Ki (CRTH2)	IC50 (Human DP1 receptor; IC50 of PGD2 (60 nM)-induced cAMP increase, human DP1 receptor expressing Jurkut cell)	SMILES
< 100 nM	100 to 5000 nM			C[C@@H]1CN(S(=O)(=O)c2ccc(OC(F)F)cc2)C[C@H]1n1nc(CC(=O)O)c2ccccc21 [Compound I-195]
< 100 nM	< 100 nM			CCOc1ccc(S(=O)(=O)N2C[C@H](n3nc(CC(=O)O)c4ccccc43)C[C@@H]2C)cc1 [Compound I-196]
100 to 5000 nM	100 to 5000 nM			CC(C)Oc1ccc(S(=O)(=O)N2C[C@@H](C)[C@H](n3nc(CC(=O)O)c4ccccc43)C2)cc1 [Compound I-199]
< 100 nM	< 100 nM			CCOc1ccc(S(=O)(=O)N2C[C@@H](C)[C@@H](n3nc(CC(=O)O)c4ccccc43)C2)c(C#N)c1 [Compound I-200]
< 100 nM	100 to 5000 nM			CCOc1ccc(S(=O)(=O)N2C[C@H](C)[C@@H](n3nc(CC(=O)O)c4ccccc43)C2)cn1 [Compound I-201]
100 to 5000 nM	< 100 nM			CCOc1ccc(S(=O)(=O)N2C[C@@H](C)[C@@H](n3nc(CC(=O)O)c4cc(C)ccc43)C2)cc1 [Compound I-202]
100 to 5000 nM	< 100 nM			Cc1ccc2c(c1)c(CC(=O)O)nn2[C@H]1CN(S(=O)(=O)c2ccc(OC(C)C)cc2)C[C@H]1C [Compound I-203]
< 100 nM	< 100 nM			COc1ccc2c(CC(=O)O)nn([C@H]3CN(S(=O)(=O)c4ccc(OC(C)C)cc4)C[C@H]3C)c2c1 [Compound I-204]
100 to 5000 nM	< 100 nM			CCOc1ccc(S(=O)(=O)N2C[C@@H](C)[C@@H](n3nc(CC(=O)O)c4c(C)cccc43)C2)cn1 [Compound I-206]
100 to 5000 nM	< 100 nM			CCOc1ccc(S(=O)(=O)N2C[C@H](n3nc(CC(=O)O)c4ccccc43)C[C@@H]2CF)cc1 [Compound I-209]
< 100 nM	100 to 5000 nM	10 nM		CC(C)Oc1ccc(S(=O)(=O)N2CC[C@@H](n3nc(CC(=O)O)c4ccc(F)cc43)[C@@H]2C)cc1 [Compound I-210]
100 to 5000 nM	100 to 5000 nM			CCOc1ccc(S(=O)(=O)N2C[C@@H](C)[C@@H](n3nc(CC(=O)NS(C)(=O)=O)c4ccccc43)C2)cc1 [Compound I-212]
100 to 5000 nM	100 to 5000 nM			C[C@@H]1CN(S(=O)(=O)c2ccc(Oc3ccccc3)nc2)C[C@@H]1n1nc(CC(=O)O)c2ccccc21 [Compound I-213]
100 to 5000 nM	< 100 nM			Cc1nc2ccc(S(=O)(=O)N3C[C@@H](C)[C@@H](n4nc(CC(=O)O)c5ccccc54)C3)cc2s1 [Compound I-214]
< 100 nM	100 to 5000 nM	22 nM		C[C@@H]1CN(S(=O)(=O)c2ccc3occc3c2)C[C@@H]1n1nc(CC(=O)O)c2ccccc21 [Compound I-215]
< 100 nM	< 100 nM			CCOc1ccc(S(=O)(=O)N2C[C@@H](C)[C@@H](n3nc(CC(=O)O)c4ccccc43)C2)c(Br)c1 [Compound I-216]
< 100 nM	< 100 nM			CCOc1ccc(S(=O)(=O)N2C[C@H](n3nc(CC(=O)O)c4ccc(F)cc43)[C@H](C)[C@H]2C#N)cc1 [Compound I-217]
100 to 5000 nM	< 100 nM			COc1ccc(S(=O)(=O)N2C[C@@H](C)[C@@H](n3nc(CC(=O)O)c4cc(Cl)ccc43)C2)cc1 [Compound I-218]
100 to 5000 nM	100 to 5000 nM	230 nM		CCOc1ccc(S(=O)(=O)N2C[C@@H](C)[C@@H](n3nc(CC(=O)O)c4ccc(N5CCOCC5)cc43)C2)cc1 [Compound I-219]
< 100 nM	< 100 nM	8.1 nM	32 nM	CCOc1ccc(S(=O)(=O)N2C[C@@H](C)[C@@H](n3nc(CC(=O)O)c4ccc(C5=CCCCC5)cc43)C2)cc1 [Compound I-220]
< 100 nM	< 100 nM			CCOc1ccc(S(=O)(=O)N2C[C@@H](C)[C@@H](n3nc(CC(=O)O)c4ccc(C5=CCCCC5)cc43)C2)cn1 [Compound I-221]
< 100 nM	100 to 5000 nM			CCOc1ccc(S(=O)(=O)N2C[C@@H](C)[C@@H](n3nc(CC(=O)O)c4ccc(C5CCCCC5)cc43)C2)cc1 [Compound I-223]
< 100 nM	100 to 5000 nM			CCOc1ccc(S(=O)(=O)N2C[C@@H](C)[C@@H](n3nc(CC(=O)O)c4ccc(C5CCCCC5)cc43)C2)cn1 [Compound I-224]
< 100 nM	< 100 nM			CCOc1ccc(S(=O)(=O)N2C[C@@H](C)[C@@H](n3nc(CC(=O)O)c4ccc(OC)cc43)C2)cc1 [Compound I-225]
< 100 nM	100 to 5000 nM			CCOc1ccc(S(=O)(=O)N2C[C@@H](C)[C@@H](n3nc(CC(=O)O)c4ccc(OC)cc43)C2)cn1 [Compound I-226]
< 100 nM	< 100 nM			Cc1ccc2c(CC(=O)O)nn([C@H]3CN(S(=O)(=O)c4ccc(OC(C)C)nc4)C[C@H]3C)c2c1 [Compound I-229]

Ki (CRTH2; [1])	IC50 (Human DP1 receptor; [2])	Ki (CRTH2)	IC50 (Human DP1 receptor; IC50 of PGD2 (60 nM)-induced cAMP increase, human DP1 receptor expressing Jurkut cell)	SMILES
< 100 nM	< 100 nM			COc1ccc(S(=O)(=O)N2C[C@@H](C)[C@@H](n3nc(CC(=O)O)c4ccc(C)cc43)C2)cc1 [Compound I-230]
< 100 nM	< 100 nM			Cc1ccc2c(CC(=O)O)nn([C@H]3CN(S(=O)(=O)c4ccc(OC(F)(F)F)cc4)C[C@H]3C)c2c1 [Compound I-231]
< 100 nM	< 100 nM			CCc1ccc(S(=O)(=O)N2C[C@@H](C)[C@@H](n3nc(CC(=O)O)c4ccc(C)cc43)C2)cc1 [Compound I-232]
< 100 nM	< 100 nM			COc1ccc(S(=O)(=O)N2C[C@@H](C)[C@@H](n3nc(CC(=O)O)c4ccc(F)cc43)C2)c(F)c1 [Compound I-233]
< 100 nM	100 to 5000 nM			COc1ccc(S(=O)(=O)N2C[C@@H](C)[C@@H](n3nc(CC(=O)O)c4ccc(F)cc43)C2)nc1 [Compound I-234]
< 100 nM	100 to 5000 nM			CCOc1ccc(S(=O)(=O)N2C[C@@H](C)[C@@H](n3nc(CC(=O)O)c4ccc(F)cc43)C2)nc1 [Compound I-235]
< 100 nM	< 100 nM			COc1ccc(S(=O)(=O)N2C[C@@H](C)[C@@H](n3nc(CC(=O)O)c4ccc(C)cc43)C2)c(F)c1 [Compound I-236]
< 100 nM	< 100 nM			CCOc1ccc(S(=O)(=O)N2C[C@@H](C)[C@@H](n3nc(CC(=O)O)c4ccc(C)cc43)C2)c(F)c1 [Compound I-237]
< 100 nM	100 to 5000 nM			CC(C)C1CC1S(=O)(=O)N1C[C@@H](C)[C@@H](n2nc(CC(=O)O)c3ccccc32)C1 (some centres unmarked) [Compound I-238]
< 100 nM	100 to 5000 nM	4.4 nM		CC(C)C1CC1S(=O)(=O)N1C[C@@H](C)[C@@H](n2nc(CC(=O)O)c3ccc(F)cc32)C1 (some centres unmarked) [Compound I-239]
< 100 nM	100 to 5000 nM			COc1ccc(S(=O)(=O)N2C[C@@H](C)[C@@H](n3nc(CC(=O)O)c4ccccc43)C2)cn1 [Compound I-240]
< 100 nM	< 100 nM			COc1ccc(S(=O)(=O)N2C[C@@H](C)[C@@H](n3nc(CC(=O)O)c4ccccc43)C2)cc1 [Compound I-241]
< 100 nM	< 100 nM			C[C@@H]1CN(S(=O)(=O)c2ccc(OC(F)(F)F)cc2)C[C@@H]1n1nc(CC(=O)O)c2ccccc21 [Compound I-242]
100 to 5000 nM	< 100 nM			CCc1ccc(S(=O)(=O)N2C[C@@H](C)[C@@H](n3nc(CC(=O)O)c4ccccc43)C2)cc1 [Compound I-243]
< 100 nM	< 100 nM			COc1ccc(S(=O)(=O)N2C[C@@H](C)[C@@H](n3nc(CC(=O)O)c4ccccc43)C2)c(F)c1 [Compound I-244]
< 100 nM	100 to 5000 nM			COc1ccc(S(=O)(=O)N2C[C@@H](C)[C@@H](n3nc(CC(=O)O)c4ccccc43)C2)nc1 [Compound I-246]
< 100 nM	100 to 5000 nM	15 nM		CCOc1ccc(S(=O)(=O)N2C[C@@H](C)[C@@H](n3nc(CC(=O)O)c4ccccc43)C2)nc1 [Compound I-247]
< 100 nM	100 to 5000 nM			CC(C)Oc1ccc(S(=O)(=O)N2C[C@@H](C)[C@@H](n3nc(CC(=O)O)c4ccccc43)C2)nc1 [Compound I-248]
< 100 nM	100 to 5000 nM			Cc1ccc2c(CC(=O)O)nn([C@H]3CN(S(=O)(=O)C4CC4C(C)C)C[C@H]3C)c2c1 (some centres unmarked) [Compound I-249]
100 to 5000 nM	< 100 nM			Cc1cccc2c1c(CC(=O)O)nn2[C@H]1CN(S(=O)(=O)c2ccc(OC(C)C)cc2)C[C@H]1C [Compound I-250]
< 100 nM	< 100 nM			C[C@@H]1CN(S(=O)(=O)c2ccc(OC(F)F)cc2)C[C@@H]1n1nc(CC(=O)O)c2cc(F)ccc21 [Compound I-251]
< 100 nM	< 100 nM			CCOc1ccc(S(=O)(=O)N2C[C@@H](C)[C@@H](n3nc(CC(=O)O)c4cc(F)ccc43)C2)cc1 [Compound I-252]
100 to 5000 nM	100 to 5000 nM			COCCOCCOc1ccc(S(=O)(=O)N2C[C@@H](C)[C@@H](n3nc(CC(=O)O)c4ccccc43)C2)cc1 [Compound I-253]
< 100 nM	< 100 nM			CCOc1ccc(S(=O)(=O)N2C[C@@H](C)[C@@H](n3nc(CC(=O)O)c4ccccc43)C2)c(CF)c1 [Compound I-258]
< 100 nM	100 to 5000 nM			CCOc1ccc(S(=O)(=O)N2C[C@@H](C)[C@@H](n3nc(CC(=O)O)c4ccccc43)C2)c(CNC(C)=O)c1 [Compound I-259]

SMILES	Ki (CRTH2; [1])	IC50 (Human DP1 receptor; [2])	Ki (CRTH2)	IC50 (Human DP1 receptor; IC50 of PGD2 (60 nM)-induced cAMP increase, human DP1 receptor expressing Jurkut cell)
CCOc1ccc(S(=O)(=O)N2C[C@@H](C)[C@H](n3nc(CC(=O)O)c4ccccc43)C2)cc1 [Compound I-197]	100 to 5000 nM	100 to 5000 nM		
CCOc1ccc(S(=O)(=O)N2C[C@H](C)[C@@H](n3nc(CC(=O)O)c4ccccc43)C2)cc1 [Compound I-198]	< 100 nM	100 to 5000 nM		
